Test results published in PubChem BioAssay (NCI).
Values joined by “and” are separate entries in the source; they are usually repeats but may differ in a detail not shown here. Equal values may be shown once.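 In this assay, cells in 96-well plates receive the compound at five concentrations for 48 hours. Endpoints are linearly interpolated between the surrounding concentrations. Here, GI50 denotes the concentration required for 50% inhibition of growth. Definition used: TGI = concentration required for complete inhibition of growth.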

Experiments:
Assay in all cases: DTP human tumour cell line panel, 48 h
MDA-MB-231 breast = system: MDA-MB-231 breast
CCRF-CEM leukemia = system: CCRF-CEM leukemia
SF-295 CNS = system: SF-295 CNS
MDA-MB-435 = system: MDA-MB-435
T-47D breast = system: T-47D breast
SN12C renal = system: SN12C renal
DU-145 prostate = system: DU-145 prostate
HCT-116 colon = system: HCT-116 colon

SMILES	TGI (MDA-MB-231 breast)	TGI (CCRF-CEM leukemia) [µM]	TGI (SF-295 CNS)	TGI (MDA-MB-435)	TGI (T-47D breast)	TGI (SN12C renal)	TGI (DU-145 prostate)	TGI (HCT-116 colon) [µM]	GI50 (MDA-MB-231 breast)	GI50 (CCRF-CEM leukemia)	GI50 (SF-295 CNS)	GI50 (MDA-MB-435)	GI50 (T-47D breast)	GI50 (SN12C renal)	GI50 (DU-145 prostate)	GI50 (HCT-116 colon)
Nc1ncnc2c1ncn2C1OC(C(=O)OCCO)C(O)C1O (stereo unspecified)	> 100 µM	> 100	> 100 µM	> 100 µM	> 100 µM	> 100 µM	> 100 µM	> 100								
NS(=O)(=O)c1ccc(N=Nc2c(=O)[nH]c3ccc4[nH]cccc4c23)cc1	> 7.89 µM	> 25	> 25 µM	> 25 µM	1.98 µM	> 25 µM	> 7.96 µM	> 25	0.885 µM	0.202 µM	0.883 µM	0.553 µM	0.48 µM	0.47 µM	0.611 µM	0.151 µM
C[C@H](c1ccc(Cl)cc1[N+](=O)[O-])N1C(=O)c2cc(I)ccc2NC(=O)[C@H]1c1ccc(Cl)cc1	> 100 µM	> 100	> 100 µM	> 100 µM	> 100 µM	> 100 µM	> 100 µM	> 100	3.46 µM	> 100 µM	8.18 µM	> 100 µM	5.37 µM	> 100 µM	> 100 µM	5.78 µM
COc1cc[nH]c1/C=C1\C(=O)Nc2ccc([N+](=O)[O-])c(N3CC[C@@H](O)C3)c21	2.31 µM	1.51	3.4 µM	0.907 µM	3.8 µM	4 µM	2.83 µM	25	0.479 µM	0.0855 µM	0.128 µM	0.271 µM	0.541 µM	0.211 µM	0.177 µM	0.0759 µM
CC1SC(c2cccc(Cl)c2)N(NC(=O)C(O)c2ccccc2)C1=O (stereo unspecified)	> 100 µM	> 100	> 100 µM	> 100 µM	> 100 µM	> 100 µM	> 100 µM	> 100	> 100 µM	> 100 µM	> 100 µM	> 100 µM	> 100 µM	> 100 µM	> 100 µM	> 100 µM
COC(=O)[C@]1(C)CC[C@]2(C)CC[C@]3(C)C(=CC(=O)[C@@H]4[C@@]5(C)CCC(=O)NC(C)(C)[C@@H]5CC[C@]43C)[C@@H]2C1	48.7 µM	44.6	43.8 µM	> 100 µM	> 100 µM	35.2 µM	89.6 µM	25.6	20.9 µM	15.1 µM	19.4 µM	26.6 µM	9.97 µM	17.1 µM	20.9 µM	10.8 µM
NC(N)=N/N=C/c1ccc(Br)cc1	14 µM	> 100	11.8 µM	3.81 µM	23.7 µM	20.2 µM	22.1 µM	15.8	4.49 µM	12.6 µM	2.95 µM	1.07 µM	5.57 µM	6.55 µM	5.5 µM	4.02 µM
COc1ccc(-c2cc3c(N)ncnc3o2)cc1	> 25 µM	> 25	> 25 µM	> 25 µM	> 25 µM	> 25 µM	> 25 µM	> 25	> 25 µM	> 25 µM	> 25 µM	> 25 µM	> 25 µM	14.8 µM	19.9 µM	> 25 µM
NC(=S)N=Nc1c(O)[nH]c2ccccc12	385 µM	> 1000	498 µM	> 1000 µM	617 µM	331 µM	284 µM	297	158 µM	253 µM	197 µM	925 µM	184 µM	154 µM	126 µM	152 µM
CSc1nc(-c2cccc(NC(=O)CCl)c2)c(C#N)c(=O)n1C	3.38 µM	9.37	3.22 µM	5.98 µM	4.19 µM	18.1 µM	3.44 µM	4.07	1.6 µM	0.0989 µM	1.7 µM	2.06 µM	1.71 µM	3.05 µM	1.77 µM	0.621 µM
CC(C)CC1NC(=O)C(C(C)C)NC(=O)CC(C)COC(=O)C(CC(C)C)N(C)C(=O)C(C(C)C)NC(=O)C(C(C)C)OC1=O (stereo unspecified)	> 50 µM	> 50	> 50 µM	> 50 µM	> 50 µM	> 50 µM	> 50 µM	> 50								
N#CC1C(=O)NC(=O)C(C#N)C1c1ccc(Cl)c(Cl)c1 (stereo unspecified)	> 100 µM	31.9	> 100 µM	49 µM	> 100 µM		> 100 µM	29.7								
COn1cc(C(=O)N=C(SC)SC)c2ccccc21	51.3 µM	91	55.4 µM	39.7 µM	> 100 µM	74.3 µM	> 100 µM		17.5 µM	22.3 µM	16.8 µM	14 µM	75.1 µM	22.4 µM	30.9 µM	
CCCCCCCCCCCCCCCC(N)c1ccccc1 (stereo unspecified)	2.95 µM	4.33	3.35 µM	3.04 µM	3.08 µM	3.51 µM	3.22 µM		1.35 µM	1.98 µM	1.73 µM	1.61 µM	1.56 µM	1.8 µM	1.75 µM	
Nc1nc(N)c(-c2ccc(Cl)cc2)c(/C=C/c2ccc([N+](=O)[O-])cc2)n1	> 100 µM	> 100	> 100 µM	> 100 µM	> 100 µM	> 100 µM	> 100 µM	> 100	8.01 µM	6.17 µM	4.39 µM	4.44 µM	6.19 µM	8.02 µM	6.66 µM	3.97 µM
COc1cc(OC)c2c(c1Cl)O[C@]1(C2=O)C(OCc2ccccc2)=CC(=O)C[C@H]1C	5.02 µM	12.2	5.59 µM	0.549 µM	67.8 µM	14 µM	5.63 µM	> 100	1.22 µM	0.532 µM	0.492 µM	0.23 µM	0.792 µM	0.833 µM	0.485 µM	0.46 µM

SMILES	TGI (MDA-MB-231 breast)	TGI (CCRF-CEM leukemia) [µM]	TGI (SF-295 CNS)	TGI (MDA-MB-435)	TGI (T-47D breast)	TGI (SN12C renal)	TGI (DU-145 prostate)	TGI (HCT-116 colon) [µM]	GI50 (MDA-MB-231 breast)	GI50 (CCRF-CEM leukemia)	GI50 (SF-295 CNS)	GI50 (MDA-MB-435)	GI50 (T-47D breast)	GI50 (SN12C renal)	GI50 (DU-145 prostate)	GI50 (HCT-116 colon)
CC(=O)N1c2ccc(-c3ccc(C(=O)O)cc3)cc2[C@H](Nc2ccc(Cl)cc2)C[C@@H]1C	> 100 µM	30.3	18.1 µM	> 56 µM	31 µM	99 µM	> 100 µM	15.2	1.19 µM	1.63 µM	0.477 µM	0.233 µM	0.108 µM	3.89 µM	12.1 µM	0.266 µM
O=C(N/N=C/c1cccc(O)c1)c1ccc(C(F)(F)F)nc1Nc1cccc(C(F)(F)F)c1	3.02 µM	1.08		4.23 µM	7.08 µM	6.34 µM	10.7 µM	5.69	1.08 µM	0.258 µM		1.65 µM	1.54 µM	1.79 µM	1.82 µM	1.93 µM
O=C1C=C(OCC=C(Cl)Cl)C(=O)c2ccccc21	17.7 µM	> 19.7	> 65.8 µM	3.04 µM	> 29.6 µM	8.27 µM	8.94 µM	7.71	3.11 µM	3.03 µM	12.7 µM	1.65 µM	2.4 µM	2.61 µM	2.8 µM	2.52 µM
CC(C)Cn1cnc2c(SCc3ccccn3)nc(N)nc21	> 100 µM	> 100	> 100 µM	> 100 µM	> 100 µM	> 100 µM	> 100 µM	> 100								
O=C1/C(=C/c2cccc(F)c2)CN(C(=O)C(Cl)Cl)C/C1=C\c1cccc(F)c1	0.671 µM	17.7	0.629 µM	0.491 µM	1.76 µM	0.475 µM	1.36 µM	0.239	0.248 µM	0.0345 µM	0.217 µM	0.21 µM	0.317 µM	0.189 µM	0.392 µM	0.0634 µM
CN1CCN(Cc2ccc(NC(=O)c3cncc(C#Cc4ncc5ccccn45)c3)cc2C(F)(F)F)CC1	5.92 µM	8.3	4.75 µM	5.23 µM	6.76 µM	4.41 µM	4.51 µM	3.06	0.881 µM	0.962 µM	1.35 µM	2.01 µM	1.6 µM	1.26 µM	1.35 µM	0.674 µM
CCC(=O)Oc1ccc(/C=N/NC(N)=S)nc1	> 100 µM	> 100	> 100 µM	> 100 µM	> 100 µM	> 100 µM	> 100 µM	> 100	6.79 µM	2.81 µM	12.3 µM	7.86 µM	5.83 µM	3.75 µM	3.05 µM	4.46 µM
CCCC(CCC)C(=O)O	> 20000 µM	> 20000	> 20000 µM	> 20000 µM	> 20000 µM	> 20000 µM	> 20000 µM	> 20000	> 100 µM	> 100 µM	> 100 µM	> 100 µM	> 100 µM	> 20000 µM	> 100 µM	> 100 µM
CCN1C(=O)N(CC)C2C1NN=c1s/c(=C\c3cnc(C)n3C)c(=O)n12 (stereo unspecified)	31.9 µM	> 100	> 100 µM	1.36 µM	> 100 µM	> 100 µM	> 100 µM	> 100	2.5 µM	2.75 µM	1.21 µM	0.321 µM	4.81 µM	4.64 µM	2.51 µM	2.43 µM
COC(=O)C1=C(O)C(C(=O)OC)[C@@]2(O)[C@@H](C(=O)OC)C(c3ccccc3Cl)C[C@@H]1[C@@H]2C(=O)OC (stereo partly specified)	20.7 µM	5.12	23.8 µM	8.82 µM	40.3 µM	19.8 µM	32.9 µM	4.12	6.56 µM	1.64 µM	7.05 µM	3.09 µM	11.6 µM	3.96 µM	14.9 µM	1.97 µM
C=CC(=O)Nc1cccc(Nc2nc(Nc3ccc(N4CCN(C(C)=O)CC4)cc3OC)ncc2C(F)(F)F)c1	> 10 µM and 20.6 µM	> 65.5	> 10 µM and 23.1 µM	> 10 µM and 19.2 µM	> 10 µM and 49.3 µM	> 10 µM and 54.8 µM	> 10 µM and 17.3 µM	> 54.4	4.47 µM and 4.02 µM	3.62 µM and 4.32 µM	6.82 µM and 8.18 µM	4.11 µM and 2.95 µM	1.88 µM and 3.92 µM	4.02 µM and 2.95 µM	4.23 µM and 2.39 µM	3.96 µM and 2.54 µM
CN1C(=O)C(C)(C)Oc2c(-c3cn(C)c(=O)c4[nH]ccc34)cc(S(C)(=O)=O)cc21	> 100 µM	> 100	> 100 µM	> 100 µM	> 100 µM	> 100 µM	> 100 µM	12.2	0.664 µM	1.45 µM	2.68 µM	0.637 µM	0.808 µM	2.68 µM	3.85 µM	1.13 µM
COc1cc2c3c(n(CCCN4CCN(CCO)CC4)c(=O)c2cc1OC)-c1cc2c(cc1C3=O)OCO2	18.3 µM	1.8	25.2 µM	> 100 µM	> 100 µM	> 100 µM	2.41 µM	7.79	4.97 µM	0.203 µM	1.55 µM	> 100 µM	> 100 µM	> 100 µM	0.107 µM	1.14 µM
CC(=O)Nc1cc(CN2CCCCC2)c(O)c2ncccc12	55.6 µM	> 100	> 100 µM	> 100 µM	> 100 µM	70.9 µM	75.7 µM	75.9								
COc1ccc2c(c1)NC(=O)CN2c1nc(C)nc2ccccc12	> 100 µM	> 100		0.000484 µM	> 100 µM	> 100 µM	> 100 µM	> 100	0.000914 µM	0.000551 µM	0.000318 µM	0.000208 µM	5.89 µM	0.00101 µM		0.000369 µM
CC1(C)N=C(N)N=C(N)N1c1ccc(CCC(=O)Nc2cccc(S(=O)(=O)F)c2)cc1	> 100 µM		> 100 µM	> 100 µM	> 100 µM	> 100 µM	> 100 µM	> 100	86.8 µM		7.75 µM	4.9 µM	68.7 µM	4.67 µM	5.81 µM	3.96 µM
